Assay results: BindingDB's records for PubMed 1347569 (Stanford University, 1992)
Structures can show the parent of a compound that is named as a salt.

Experiments:
[1] = target: 5-hydroxytryptamine receptor 2A (Rattus norvegicus, UniProt P14842)
[2] = target: T1, 5-hydroxytryptamine receptor 2C (Rattus norvegicus, UniProt P08909)
T1 sequence (P08909 whole entry): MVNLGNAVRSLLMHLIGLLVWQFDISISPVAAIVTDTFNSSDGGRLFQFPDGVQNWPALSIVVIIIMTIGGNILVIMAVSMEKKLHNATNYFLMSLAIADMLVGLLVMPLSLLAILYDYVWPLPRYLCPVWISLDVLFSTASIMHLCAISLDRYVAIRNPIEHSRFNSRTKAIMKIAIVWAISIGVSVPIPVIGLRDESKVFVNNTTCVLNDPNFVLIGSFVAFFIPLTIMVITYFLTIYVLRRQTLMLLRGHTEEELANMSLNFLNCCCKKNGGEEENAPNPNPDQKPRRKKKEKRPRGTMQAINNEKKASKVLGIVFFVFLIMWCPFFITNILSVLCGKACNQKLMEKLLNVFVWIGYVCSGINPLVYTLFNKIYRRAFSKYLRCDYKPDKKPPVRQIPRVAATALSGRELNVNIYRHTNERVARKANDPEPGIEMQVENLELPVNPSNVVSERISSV

5-hydroxytryptamine receptor 2A, sequence (P14842 whole entry): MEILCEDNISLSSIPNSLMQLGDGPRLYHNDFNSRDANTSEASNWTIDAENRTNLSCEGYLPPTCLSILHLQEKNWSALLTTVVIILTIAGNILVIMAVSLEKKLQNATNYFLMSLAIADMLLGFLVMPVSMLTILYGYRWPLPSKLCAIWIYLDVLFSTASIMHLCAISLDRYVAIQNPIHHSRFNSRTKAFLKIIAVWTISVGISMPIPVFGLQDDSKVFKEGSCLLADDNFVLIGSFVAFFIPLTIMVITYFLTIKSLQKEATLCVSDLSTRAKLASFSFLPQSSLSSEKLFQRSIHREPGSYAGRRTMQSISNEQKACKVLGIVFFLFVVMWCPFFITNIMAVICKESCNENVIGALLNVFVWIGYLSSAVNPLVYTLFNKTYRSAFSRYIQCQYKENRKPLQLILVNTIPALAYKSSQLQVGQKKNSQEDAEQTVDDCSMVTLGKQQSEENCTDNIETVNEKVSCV

Structure (SMILES) | Ki [1] | Ki [2]
CN1CCN(C2=Cc3cc(Cl)ccc3C(=CC#N)c3ccccc32)CC1 [CAS_79781-95-6] | 0.00079 µM | 0.023 µM
OCCN1CCN(CC/C=C2/c3ccccc3Sc3ccc(C(F)(F)F)cc32)CC1 [(cis) 2-{4-[3-(2-Trifluoromethyl-thioxanthen-9-ylidene)-propyl]-piperazin-1-yl}-ethanol(Flupentixol)] | 0.002 µM | 0.102 µM
CN1CCc2cc(Cl)c(O)cc2[C@@H](c2ccccc2)C1 [SCH 23390,R(+)] | 0.0199 µM | 0.0134 µM
O=C1CC2(CCCC2)CC(=O)N1CCCCN1CCN(c2nsc3ccccc23)CC1 [TIOSPERONE] | – | 0.0097 µM
CCNC(=O)N1CCN(CCCC(c2ccc(F)cc2)c2ccc(F)cc2)CC1 | – | 1.15 µM
Clc1cncc(N2CCNCC2)n1 [L-630,571] | > 10 µM | 0.255 µM
CN1CCN(C2=Nc3cc(F)ccc3Cc3ccccc32)CC1 | 0.0079 µM | 0.0182 µM
O=c1[nH]c2ccccc2n1CCCN1CCC(n2c(=O)[nH]c3cc(Cl)ccc32)CC1 | 0.294 µM | > 10 µM
CN1CCCCC1CCN1c2ccccc2Sc2ccc([S+](C)[O-])cc21 (stereo unspecified) | 0.0063 µM | 0.079 µM
CN1CCN(C2=Nc3cscc3C(=CC#N)c3cscc32)CC1 [NSC_3086153] | 0.0398 µM | 0.062 µM
O=c1[nH]c2ccccc2n1C1CCN(CCCC(c2ccc(F)cc2)c2ccc(F)cc2)CC1 [1-(1-(4,4-bis(4-fluorophenyl)butyl)piperidin-4-yl)-1H-benzo[d]imidazol-2(3H)-one] | 0.0079 µM | > 10 µM
CC1CCN(CCCC(=O)c2ccc(F)cc2)CC1 [CAS_3575-80-2] | – | 1.34 µM
CCN(CC)CCNC(=O)c1cc(Cl)c(N)cc1OC [4-amino-5-chloro-N-[2-(diethylamino)ethyl]-2-methoxy-benzamide;hydrochloride] | – | > 10 µM
O=C(c1ccc(F)cc1)C1CCN(CCn2c(=O)[nH]c3ccccc3c2=O)CC1 [3-(2-{4-[(4-fluorophenyl)carbonyl]piperidin-1-yl}ethyl)-1,2,3,4-tetrahydroquinazoline-2,4-dione] | – | 0.0285 µM
c1ccc2nc(N3CCNCC3)ccc2c1 [2-Piperazin-1-yl-quinoline (Quipazine)] | 0.613 µM | 0.336 µM
CN1CCN(CC/C=C2/c3ccccc3Sc3ccc(S(=O)(=O)N(C)C)cc32)CC1 [MLS000028463] | – | 1.55 µM
